In patent publication US20180289843A1, “COATING FOR METAL NANOPARTICLES” (AGENCY FOR SCIENCE, TECHNOLOGY AND RESEARCH, priority 2015, published 2018):
Where a SMILES comes first, the peptide text is derived from it. [ ]: non-standard residue; d: D form. The star is where a group is joined. pS = N[C@@H](COP(=O)(O)O)C(=O)O; Thr(ol) = C[C@@H](O)[C@H](N)CO; X1 = O=C(COP(=O)(O)O)*

Assays:
[1] = Normalized aggregation parameter (NAP) by UV-visible absorbance; format: physicochemical; details: single ligand shell
Method: UV-visible spectra were recorded at room temperature using a Molecular Probes (Oregon, USA) Spectramax 384-well spectrometer, using a 1 cm path length quartz cuvette, and a fixed slit width of 2 nrn. The spectrometer was calibrated daily using the machine's ‘Auto-Calibrate’ air calibration.
To allow the comparison of results from different ligand exchange experiments, the aggregation parameter (AP) was defined as follows: […]
A460 nm and A300 nm are absorbance values of solutions of nanoparticles at 460 nm and 300 nm, respectively. The empiric wavelength of 460 nm has been chosen to reflect the aggregated state of the nanoparticles. Aref460 nm and Aref300 nm are absorbance values of water at 460 nm and 300 nm. To allow comparison of results obtained with different ligand shells, this primary aggregation parameter was then normalized by dividing the aggregation parameter values of each experiment by the initial aggregation parameter value of the same experiment before the stability test. This provides a Normalized Aggregation Parameter (NAP). […] An increase of the NAP indicates the instability and eventually aggregation of the nanoparticles.

[2] = Electrolyte-induced aggregation stability test (NaCl, PBS) followed by UV-visible spectrometry; format: physicochemical; details: prepared in PBS and Tween 20, two days
Method: The stability of the nanoparticles was followed by UV-visible spectrometry. A decrease of absorbance indicates the aggregation of the nanoparticles. […] The four single peptide ligand shells were evaluated for their potential to stabilize the iron oxide nanoparticles against electrolyte-induced aggregation. The nanoparticles were mixing with a range of concentration of NaCl (0.1 mM to 1 M) at room temperature. The stability of the nanoparticles was followed by UV-visible spectrophotometry and the normalized aggregation parameters were determined. […] The aggregation of all nanoparticles were observed also in PBS buffer (with 100 mM NaCl) after few hours. […] This represents a promising result since the utilization of the peptide coated iron nanoparticles in vitro and in vivo are performed at 37° C. All the mixed peptide ligand shells providing sufficient yield of nanoparticles were evaluated for electrolyte-induced aggregation stability by mixing the nanoparticles with a range of concentration of NaCl (0.1 mM to 1 M) at room temperature. […] This represents again a promising results since the utilisation of the peptide coated iron nanoparticles in vitro and in vivo are performed at 37° C.

[3] = prepared using PBS and Tween 20

| Compound | NAP (normalized aggregation parameter) ([1]; prepared using water only) | other results |
| --- | --- | --- |
| O=P(O)(O)SCCCCCCCCCCCOCCOCCOCCO [Ligand L1, (HO)2-PO-S-C11-EG3-OH] | (1.25 ± 0.08) |  |
| PO3H2-O-CH2-CO-Ser(PO3H2)-NH-PEG4-ol [Peptide S8] | (1 ± 0.01) |  |
| PO3H2-O-CH2-CO-Gly-NH-PEG4-OH [Peptide S5] | (1.21 ± 0.21) |  |
| PO3H2-O-CH2-CO-Ser(PO3H2)-NH-PEG4-OH [Peptide S7] | (1 ± 0.02) | NAP (normalized aggregation parameter) [1, 3]: 1.33 ± 0.08 |
| CC(C)[C@H](NC(=O)[C@H](COP(=O)(O)O)NC(=O)COP(=O)(O)O)C(=O)N[C@H](C(=O)N[C@H](C(=O)N[C@H](CO)[C@@H](C)O)C(C)C)C(C)C [Peptide S14, PO3H2-O-CH2-CO-Ser(PO3H2)-Val-Val-Val-Thr-ol] (X1-[pS]VVV[Thr(ol)]) |  | Stability in PBS buffer at 37° C. ([2]; 37° C.): same high stability; Stability in 1 M NaCl ([2]; room temperature): high stability; Stability in PBS buffer at room temperature ([2]; room temperature): high stability |
| O=P(O)(O)SCCCCCCCCCCCOCCOCCOCCOCCOCCOCCO [Ligand L2, (HO)2-PO-S-C11-EG6-OH] | (1.31 ± 0.04) |  |
| H-[pS]VVV[Thr(ol)] [Peptide S13] | (1.23 ± 0.13) | NAP (normalized aggregation parameter) [1, 3]: 2.23 ± 0.34 |
